System: human skin cells (HEKn keratinocytes)
Experiment: Urban Dust induced lipid peroxidation
Type: cell-based
Conditions: after 4 hours, test sample 5%
Procedure: A third-party testing facility conducted tests to determine the effects of standardized Urban Dust particulates (NIST® SRM® 1649b) on the production of free radicals and lipid peroxidation in human skin cells (HEKn keratinocytes). Tests were conducted at 1 hour, 2 hours and 3 hours with varying concentrations of the test samples (1%, 3%, and 5%) (i.e. at one hour intervals) to measure intracellular reactive oxygen species and after 4 hours with test sample (5%) for lipid peroxidation. A fluorescent plate reader was utilized to measure a fluorescent dye incubated in all test conditions which measures intracellular reactive oxygen species and lipid peroxidation. The measurement is expressed as the mean relative fluorescent unit (RFU). FIG. 4B illustrates by bar graph the effects of the Urban Dust on tissue. Non-exposed tissue has immeasurably low RFU. The urban dust exposed cells have an increase in lipid peroxidation with 0.2 RFU.

## Cc1c(C)c2c(c(C)c1O)CCC(C)(C(=O)O)O2 (centres unmarked) [Trolox]
Exposed to Urban Dust, Urban Dust alone 0.2 RFU
  Lipid peroxidation (mean RFU): about 0.05 RFU
Vs Urban Dust exposed cells
  Reduction in lipid peroxidation: 67%
